Experimental findings from patent US9642851B2, “Indolinone derivative as tyrosine kinase inhibitor” (KBP Biosciences Co., Ltd., priority 2012, dated 2017) are described below.

Counter-ions that a name gives are not always drawn.

The target in one assay is T1, FGFR3 (Homo sapiens, UniProt P22607).
T1 construct: purchased Carna
Kind of assay: In vitro enzymology inhibitory activity (Caliper mobility shift kinase assay). In kind it is biochemical. As to conditions: reaction 1 hour at 28° C., FAM-labelled peptide and ATP. How it is done: (§1) • (1) Preparation of agents and compounds • (1) 1-fold kinase buffer without MnCl2 (50 mM HEPES, pH=7.5, 0.0015% Brij-35, 10 mM MgCl2, 2 mM DTT) • (2) 1-fold kinase buffer with MnCl2 (50 mM HEPES, pH=7.5, 0.0015% Brij-35, 10 mM MgCl2, 10 mM MnCl2, 2 mM DTT); • (3) Termination solution (100 mM HEPES, pH=7.5, 0.015% Brij-35, 0.2% Coating Reagent #3, 50 mM EDTA); • (4) 2.5-fold kinase solution (the VEGFR2, FGFR1, FGFR3, PDGFRβ kinases were added to the 1-fold kinase buffer respectively to prepare the corresponding 2.5-fold kinase solutions); • (5) 2.5-fold substrate solution: FAM-labelled peptide and ATP were added to the 1-fold kinase buffer to prepare a peptide solution; • (6) 4-fold dilution of the compound solution: the compound was accurately weighed, and dissolved in DMSO. The mixture was mixed sufficiently and evenly to prepare a 10 mM solution. Then the solution was diluted with DMSO to 500 μM, and 4-fold serial dilutions were done at 10 concentrations with a highest concentration of 50μM.
(§2) The calculated inhibition ratio (%)=(max. conversion−sample conversion)/(max. conversion−min. conversion)×100
(§3) The curve fitting was done with the software Xlfit to obtain the IC50 value.

The target in a further assay is T2, PDGFRβ (Homo sapiens, UniProt P09619).
T2 construct: purchased BPS
T2 sequence (P09619 33-1106): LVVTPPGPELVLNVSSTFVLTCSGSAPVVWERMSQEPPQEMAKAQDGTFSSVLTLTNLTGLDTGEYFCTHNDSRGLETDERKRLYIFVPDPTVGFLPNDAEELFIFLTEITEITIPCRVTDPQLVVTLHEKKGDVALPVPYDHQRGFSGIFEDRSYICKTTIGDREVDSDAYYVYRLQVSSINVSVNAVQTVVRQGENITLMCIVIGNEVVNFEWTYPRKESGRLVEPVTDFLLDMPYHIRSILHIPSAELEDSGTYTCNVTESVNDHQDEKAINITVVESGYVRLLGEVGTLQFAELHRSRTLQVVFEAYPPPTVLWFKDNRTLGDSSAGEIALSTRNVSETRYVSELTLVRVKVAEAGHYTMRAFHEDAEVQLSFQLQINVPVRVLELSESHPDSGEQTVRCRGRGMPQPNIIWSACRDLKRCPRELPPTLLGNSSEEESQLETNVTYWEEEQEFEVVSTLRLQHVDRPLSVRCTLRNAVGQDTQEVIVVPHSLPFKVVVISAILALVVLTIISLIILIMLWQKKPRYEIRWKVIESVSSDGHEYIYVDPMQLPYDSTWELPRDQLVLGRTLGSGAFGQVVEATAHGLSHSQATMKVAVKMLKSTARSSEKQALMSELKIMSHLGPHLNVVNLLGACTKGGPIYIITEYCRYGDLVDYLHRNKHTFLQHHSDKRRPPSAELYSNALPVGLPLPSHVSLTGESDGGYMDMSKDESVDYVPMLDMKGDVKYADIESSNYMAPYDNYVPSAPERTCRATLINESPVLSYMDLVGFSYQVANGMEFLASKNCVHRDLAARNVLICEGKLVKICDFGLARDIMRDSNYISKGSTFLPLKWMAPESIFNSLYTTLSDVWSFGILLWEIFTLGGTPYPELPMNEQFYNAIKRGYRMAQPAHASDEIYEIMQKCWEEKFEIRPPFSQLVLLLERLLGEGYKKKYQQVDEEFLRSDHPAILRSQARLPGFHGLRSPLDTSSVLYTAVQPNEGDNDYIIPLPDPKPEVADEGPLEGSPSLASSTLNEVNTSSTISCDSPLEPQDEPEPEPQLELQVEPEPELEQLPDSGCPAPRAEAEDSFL
The description is as above. In kind it is biochemical. The following applies: reaction 5 hour at 28° C., FAM-labelled peptide and ATP. The method, then:
as §1, §2, §3

For another assay, the system named is HUVEC cells. The assay is described as follows: In vitro cellular inhibitory activity, h-VEGF-A stimulated HUVEC proliferation. In kind it is cell-based. The following applies: Homo sapiens, h-VEGF-A 10 ng/ml, incubated for 89 hours, absorbance at 490 nm, read-out: ED50 for the HUVEC in vitro cells. How it is done:
(§4) (1) Thawing cells and Passing cells.
(§5) The 3T3 cells were resuspended in a culture medium containing 10% fetal bovine serum, wherein the cell concentration was 5×10^4/ml. The cell suspension was added to a 96-well plate with 100 μL per well, and incubated overnight; the HUVEC cells were resuspended in a culture medium containing 10% heat-inactivated fetal bovine serum, wherein the cell concentration was 7.5×10^4/ml. The cell suspension was added to a 96-well plate with 100 μL per well. • (3) Treating with drugs: the compounds were diluted to different concentrations, and 60 μLh-PDGF-BB (3T3 cells) and 40 ng/ml h-VEGF-A (HUVEC cells) were added and incubated for 1 hour. • (4) 100 μL of a solution containing the compound and h-PDGF-BB (h-VEGF-A, for the HUVEC cells) was added to a cell culture plate, wherein the final concentration of h-PDGF-BB was 10 ng/ml, the final concentration of h-VEGF-A was 10 ng/ml, and the final concentration for the compounds were 10, 3.3333, 1.1111, 0.3704, 0.1235, 0.0412, 0.0137, 0.0046, and 0.0015 μM. The plate was incubated for 40 hours, and the HUVEC cells were incubated for 89 hours. To each well was added 20 μL Promega Substrate, and the plate was incubated at 37° C. for 7.5 hours, and the HUVEC cells were incubated for 11.5 hours. Then the plate was placed in a microplate reader to read the absorbance at 490 nm. • (5) Data processing
(§6) The curve of the compound concentration vs. Net OD was plotted, wherein Net OD=Compound OD−min. OD. ED50 was calculated according to the following equation: Conc. ED50(x)=(y−b)/a, y=Calculated Net OD for IC50, a=slope, b=intercept.

In the next assay the test system is 3T3 cells. Kind of assay: In vitro cellular inhibitory activity, h-PDGF-BB stimulated 3T3 proliferation. In kind it is cell-based. As to conditions: Mus musculus, NIH3T3; h-PDGF-BB 10 ng/ml, incubated for 40 hours, absorbance at 490 nm; read-out: ED50 for the 3T3 in vitro cells. How it is done:
as §4, §5, §6

Another assay concerns the target hERG potassium channel (Homo sapiens, UniProt Q12809). Kind of assay: Inhibitory effect on hERG potassium channel with the patch clamp method. How it is done:
1. Preparations of the Solutions and the Compounds
Extracellular fluid (mM): N-2-hydroxyethylpiperazine-N′-2-ethanesulfonic acid (HEPES) 10, NaCl 145, KCl 4, CaCl2 2, MgCl2 1, Glucose 10, adjusted with 1N sodium hydroxide to pH=7.4; the osmotic pressure was adjusted to 290-300 mOsm; filtered and preserved at 4° C.
Intracellular solution (mM): KCl 120, KOH 31.25, CaCl2 5.374, MgCl2 1.75, Ethylene glycol-bis(β-aminoethyl ether)-N,N,N′,N′-tetraacetic acid (EGTA) 10, HEPES 10, Na2-ATP 4, adjusted with 1N potassium hydroxide to pH=7.2; the osmotic pressure was adjusted to 280-290 mOsm; filtered and preserved at −20° C.
Before the experiments, the above stock solutions were diluted with DMSO to the levels that were 333 or 1000 times higher than the experiment concentrations, and then diluted by 333 or 1000 folds with the extracellular fluid to the desired concentrations. The final concentration of DMSO in the extracellular fluid was 0.3% or 0.1%.
2. Electrophysiological experiment. The hERG current was recorded with whole cell patch clamp technique. A cell suspension was added to a 35 mm petri dish, and placed on the object stage of an inverted microscope. After the adherence of cells, the perfusion with the extracellular fluid was done in a perfusion rate of 1-2 ml/min. […] After establishing a whole-cell record, the holding potential was kept at −80 mV. In the voltage stimulation, the depolarization was made at the potential of +60 mV. Then, the repolarization was made at the potential of −50 mV and the hERG tail current was recorded. All of the recordings were conducted after the currents became stable. The extracellular perfusion administration started from the lower concentration, and the administration at each concentration was conducted for 5-10 mines until the current became stable and then the administration at the next concentration was conducted. 3. The Experiment Included the Following Aspects:
The hERG current was recoded on the CHO-K1 cell line stably expressing the hERG channel with the manual patch clamp technology; the inhibition ratio at each concentration was calculated according to the hERG tail current; each of the compounds was measured at five concentrations to deduce the IC50 value; two cells were measured at each concentration; and one positive control drug was used.
4. Data Collection and Processing
The stimulation and the signal collection were accomplished through A/D-D/A digital-analog conversions with Digidata 1440 (Molecular Devices) and pCLAMP software (Version 10.2, Molecular Devices); the signal was amplified with a patch clamp amplifier (Multiclamp 700B, Molecular Devices), and filtered at 1 KHz. The data were further analyzed and subjected to the curve fitting with Clampfit (Version 10.2, Molecular Devices) and Prism. The data were expressed as mean value±standard deviation. The IC50 value was obtained by the fitting based on the Logistic equation:
[formula] • y: the inhibitory percent; max: 100%; min: 0%; [drug]: the concentration of the tested substance; nH: the slope rate; IC50: the half maximal inhibitory concentration of the tested substance.

Sequence of hERG potassium channel (Q12809 whole entry): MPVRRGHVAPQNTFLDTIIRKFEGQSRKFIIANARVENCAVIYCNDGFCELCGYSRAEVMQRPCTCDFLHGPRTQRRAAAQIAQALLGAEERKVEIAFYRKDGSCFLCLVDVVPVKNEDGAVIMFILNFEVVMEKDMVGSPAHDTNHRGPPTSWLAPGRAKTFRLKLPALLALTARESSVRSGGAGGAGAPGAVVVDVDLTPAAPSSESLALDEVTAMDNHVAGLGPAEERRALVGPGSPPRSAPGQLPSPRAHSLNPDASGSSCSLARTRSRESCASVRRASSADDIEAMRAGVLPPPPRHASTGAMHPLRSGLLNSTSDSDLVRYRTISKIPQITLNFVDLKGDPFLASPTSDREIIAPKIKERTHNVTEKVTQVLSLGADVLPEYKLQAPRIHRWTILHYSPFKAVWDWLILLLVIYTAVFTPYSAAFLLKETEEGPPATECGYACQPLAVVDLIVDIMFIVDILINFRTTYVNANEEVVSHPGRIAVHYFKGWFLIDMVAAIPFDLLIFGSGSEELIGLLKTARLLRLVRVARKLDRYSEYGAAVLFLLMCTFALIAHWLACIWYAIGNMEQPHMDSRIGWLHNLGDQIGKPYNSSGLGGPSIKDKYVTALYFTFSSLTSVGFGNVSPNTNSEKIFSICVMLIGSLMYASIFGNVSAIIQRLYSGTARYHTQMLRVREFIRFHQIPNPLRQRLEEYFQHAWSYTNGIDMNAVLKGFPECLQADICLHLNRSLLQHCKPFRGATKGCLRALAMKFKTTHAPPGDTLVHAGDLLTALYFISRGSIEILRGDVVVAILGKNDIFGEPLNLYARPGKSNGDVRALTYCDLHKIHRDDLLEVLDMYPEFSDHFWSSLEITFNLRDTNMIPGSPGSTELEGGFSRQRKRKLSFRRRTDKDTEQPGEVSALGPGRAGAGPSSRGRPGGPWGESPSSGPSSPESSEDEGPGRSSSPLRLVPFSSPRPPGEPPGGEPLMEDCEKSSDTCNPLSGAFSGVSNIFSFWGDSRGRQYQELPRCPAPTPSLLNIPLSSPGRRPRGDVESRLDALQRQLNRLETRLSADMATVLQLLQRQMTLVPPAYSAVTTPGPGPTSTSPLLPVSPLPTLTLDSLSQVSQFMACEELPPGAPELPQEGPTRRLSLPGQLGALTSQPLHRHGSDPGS
T1 sequence (P22607 23-806): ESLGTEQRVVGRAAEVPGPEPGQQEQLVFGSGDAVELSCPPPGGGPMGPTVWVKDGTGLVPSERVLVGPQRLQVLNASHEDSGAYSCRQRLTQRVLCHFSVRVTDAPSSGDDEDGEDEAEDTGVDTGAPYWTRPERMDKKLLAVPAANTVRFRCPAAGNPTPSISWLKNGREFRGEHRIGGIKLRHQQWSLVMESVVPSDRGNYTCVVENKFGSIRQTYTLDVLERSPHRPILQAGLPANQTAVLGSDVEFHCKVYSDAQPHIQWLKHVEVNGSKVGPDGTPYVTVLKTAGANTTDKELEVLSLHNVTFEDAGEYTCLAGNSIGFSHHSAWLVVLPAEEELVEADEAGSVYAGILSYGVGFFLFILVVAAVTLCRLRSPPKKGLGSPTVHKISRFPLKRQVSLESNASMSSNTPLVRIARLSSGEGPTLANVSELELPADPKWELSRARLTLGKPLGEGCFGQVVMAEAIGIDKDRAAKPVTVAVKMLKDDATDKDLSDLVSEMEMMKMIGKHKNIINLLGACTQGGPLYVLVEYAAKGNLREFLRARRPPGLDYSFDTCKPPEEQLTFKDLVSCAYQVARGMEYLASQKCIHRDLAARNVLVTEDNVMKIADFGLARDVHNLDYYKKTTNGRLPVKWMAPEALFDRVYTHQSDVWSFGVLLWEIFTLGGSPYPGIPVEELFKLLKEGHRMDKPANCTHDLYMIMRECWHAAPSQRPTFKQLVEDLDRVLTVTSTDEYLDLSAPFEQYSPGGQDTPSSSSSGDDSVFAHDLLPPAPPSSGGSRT

As usually defined, the IC50 is the midpoint of a concentration-inhibition curve. Regarding `COC(=O)c1ccc2c(c1)NC(=O)/C2=C(\Nc1ccc2c(c1)CCN2C(=O)CN(C)C)c1ccccc1` [Compound 2 hydrochloride, methyl(Z)-3-((1-(2-(dimethylamino)acetyl)indolin-5-ylamino)(phenyl)methylene)-2oxoindoline-6-carboxylate hydrochloride], the figures for the IC50 at FGFR3 and at PDGFRβ were 280 nM and 15 nM, respectively.

Consider `COC(=O)c1ccc2c(c1)NC(=O)/C2=C(\Nc1ccc2c(c1)CCN2C(=O)CN1CCN(C)CC1)c1ccc(F)cc1` [Compound 3], for which the EC50 in the assay on HUVEC cells is 180 to 260 nM; in the assay on 3T3 cells, 1300 to 1900 nM.

As to `CCOC(=O)c1ccc2c(c1)NC(=O)/C2=C(\Nc1ccc2c(c1)CCN2C(=O)CN1CCN(C)CC1)c1ccccc1` [Compound 4], the EC50 in the assay with HUVEC cells lay in the range of 120 to 170 nM.

As to `COC(=O)c1ccc2c(c1)NC(=O)/C2=C(\Nc1ccc2c(c1)CCN2C(=O)CC1CCN(C)CC1)c1ccccc1` [Compound 5], the EC50 with HUVEC cells was 100 to 150 nM; with 3T3 cells, 820 to 1240 nM.

`COC(=O)c1ccc2c(c1)NC(=O)/C2=C(\Nc1ccc2c(c1)CCN2C(=O)CCC(=O)N(C)C)c1ccccc1` [Compound 6 hydrochloride]: the EC50 in the assay with HUVEC cells was 190 to 280 nM.

Turning to `COC(=O)c1ccc2c(c1)NC(=O)/C2=C(\Nc1ccc2c(c1)CCN2C(=O)CN1CCOCC1)c1ccccc1` [Compound 7 hydrochloride], the EC50 in the assay with 3T3 cells was in the range of 50 to 70 nM.

Consider `COC(=O)c1ccc2c(c1)NC(=O)/C2=C(\Nc1ccc2c(c1)CCN2C(=O)CN1CCOCC1)c1ccccc1` [Compound 7], for which the EC50 in the assay with HUVEC cells is 70 to 100 nM. The half-inhibitory concentration (IC50) at hERG potassium channel is over 30 µM.

Consider `COC(=O)c1ccc2c(c1)NC(=O)/C2=C(\Nc1ccc2c(c1)CCN2C(=O)CN1CCC(O)CC1)c1ccccc1` [Compound 8], for which the EC50 in the assay on HUVEC cells lay in the range of 70 to 100 nM.

`COC(=O)c1ccc2c(c1)NC(=O)/C2=C(\Nc1ccc2c(c1)CCN2C(=O)CN1CCOCC1)c1ccc(F)cc1` [Compound 9, methyl(Z)-3-((4-fluorophenyl)(1-(2-morpholinylacetyl)indolin-5-ylamino)methylene)-2-oxoindoline-6-carboxylate] had a half-inhibitory concentration (IC50) at hERG potassium channel of over 30 µM.

At hERG potassium channel, `CCOC(=O)c1ccc2c(c1)NC(=O)/C2=C(\Nc1ccc2c(c1)CCN2C(=O)CN1CCOCC1)c1ccccc1` [Compound 10, ethyl(Z)-3-((1-(2-morpholinylacetyl)indolin-5-ylamino)(phenyl)methylene)-2-oxoindoline-6-carboxylate] displayed an IC50 of over 30 µM.

`COC(=O)c1ccc2c(c1)NC(=O)/C2=C(\Nc1ccc2c(c1)CCN2C(=O)CN1CC(C)OC(C)C1)c1ccccc1` (centres unmarked) [Compound 11 hydrochloride, methyl(Z)-3-((1-(2-(2,6-dimethylmorpholine)acetyl)indolin-5-ylamino)(phenyl)methylene)-2-oxoindoline-6-carboxylate]: the EC50 in the assay on HUVEC cells was 50 to 80 nM.

Compound `COC(=O)c1ccc2c(c1)NC(=O)/C2=C(\Nc1ccc2c(c1)CCN2C(=O)CN1CC(C)OC(C)C1)c1ccccc1` (centres unmarked) [Compound 11, methyl(Z)-3-((1-(2-(2,6-dimethylmorpholine)acetyl)indolin-5-ylamino)(phenyl)methylene)-2-oxoindoline-6-carboxylate] returned an IC50 against hERG potassium channel of over 30 µM.

For the compound `COC(=O)c1ccc2c(c1)NC(=O)/C2=C(\Nc1ccc2c(c1)CCN2C(=O)CN1CCCC1=O)c1ccccc1` [Compound 12 hydrochloride, methyl(Z)-3-((1-(2-(2-pyrrolidon-1-yl)acetyl)indolin-5-ylamino)(phenyl)methylene)-2-oxoindoline-6-carboxylate], the concentration for half-maximal inhibition (IC50) at FGFR3 came to 1720 nM; on PDGFRβ it was 19 nM. Further, the EC50 in the assay on HUVEC cells was 20 to 30 nM.

Consider `COC(=O)c1ccc2c(c1)NC(=O)/C2=C(\Nc1ccc2c(c1)CCN2C(=O)CN1CCCC1=O)c1ccccc1` [Compound 12, methyl(Z)-3-((1-(2-(2-pyrrolidon-1-yl)acetyl)indolin-5-ylamino)(phenyl)methylene)-2-oxoindoline-6-carboxylate], for which the half-maximal inhibitory concentration (IC50) against hERG potassium channel is over 30 µM.

The compound `COC(=O)c1ccc2c(c1)NC(=O)/C2=C(\Nc1ccc2c(c1)CCN2C(=O)Cn1cncn1)c1ccccc1` [Compound 13, methyl(Z)-3-((1-(2-(1H-1,2,4-triazol-1-yl)acetyl)indolin-5-ylamino)(phenyl)methylene)-2-oxoindoline-6-carboxylate] came in with an IC50 at hERG potassium channel of over 30 µM.

Take `COC(=O)c1ccc2c(c1)NC(=O)/C2=C(\Nc1ccc2c(c1)CCN2C(=O)Cn1cccn1)c1ccccc1` [Compound 14 hydrochloride, methyl(Z)-3-((1-(2-(1H-pyrazol-1-yl)acetyl)indolin-5-ylamino)(phenyl)methylene)-2-oxoindoline-6-carboxylate]: the half-maximal inhibitory concentration (IC50) on FGFR3 was determined as 4020 nM; on PDGFRβ it was 24 nM. Further, in the assay with HUVEC cells, the EC50 fell in the range of 70 to 100 nM.

With `COC(=O)c1ccc2c(c1)NC(=O)/C2=C(\Nc1ccc2c(c1)CCN2C(=O)Cn1cccn1)c1ccccc1` [Compound 14, methyl(Z)-3-((1-(2-(1H-pyrazol-1-yl)acetyl)indolin-5-ylamino)(phenyl)methylene)-2-oxoindoline-6-carboxylate], the half-maximal inhibitory concentration (IC50) at hERG potassium channel was over 30 µM.

Compound `COC(=O)c1ccc2c(c1)NC(=O)/C2=C(\Nc1ccc(N(C)C(=O)CN2CCN(C)CC2)cc1)c1ccccc1` [Intedanib (BIBF-1120), Intedanib, reference compound] gave an IC50 against hERG potassium channel of 4.9 µM.
